# According to paper PMC6914789 (Scientific Reports, 2019):
# Columns and labels:
# [1] = target: T1, Sirt1 (Homo sapiens, UniProt Q96EB6); assay: MS deacetylation assay with acetyl-p53 peptide; type: biochemical
# T1 construct: Full length human Sirt1
# T1 sequence (Q96EB6 2-747): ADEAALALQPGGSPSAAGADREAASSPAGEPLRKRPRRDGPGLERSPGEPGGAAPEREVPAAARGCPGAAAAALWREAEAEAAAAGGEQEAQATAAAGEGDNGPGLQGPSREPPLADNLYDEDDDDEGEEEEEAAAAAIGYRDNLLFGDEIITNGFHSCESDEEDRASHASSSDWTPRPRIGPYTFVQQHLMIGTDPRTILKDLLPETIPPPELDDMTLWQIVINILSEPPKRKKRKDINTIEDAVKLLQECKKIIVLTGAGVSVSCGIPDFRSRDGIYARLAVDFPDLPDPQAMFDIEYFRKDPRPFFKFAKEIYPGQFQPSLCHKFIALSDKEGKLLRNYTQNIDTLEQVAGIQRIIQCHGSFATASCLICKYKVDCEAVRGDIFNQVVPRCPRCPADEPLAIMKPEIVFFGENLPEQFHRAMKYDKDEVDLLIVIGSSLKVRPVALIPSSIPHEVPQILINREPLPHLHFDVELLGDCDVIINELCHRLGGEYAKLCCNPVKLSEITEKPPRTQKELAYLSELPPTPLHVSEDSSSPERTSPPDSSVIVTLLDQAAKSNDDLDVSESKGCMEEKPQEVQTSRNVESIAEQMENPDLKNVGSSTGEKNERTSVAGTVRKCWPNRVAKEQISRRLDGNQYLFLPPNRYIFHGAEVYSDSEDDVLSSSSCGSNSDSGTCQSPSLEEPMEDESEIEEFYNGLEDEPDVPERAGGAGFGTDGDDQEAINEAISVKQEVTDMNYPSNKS
# [2] = target: T2, Sirt5 (Homo sapiens, UniProt Q9NXA8); assay: MS desuccinylation assay with succinyl-CPS1 peptide; type: biochemical
# T2 construct: residues 34–302
# T2 sequence (Q9NXA8 34-302): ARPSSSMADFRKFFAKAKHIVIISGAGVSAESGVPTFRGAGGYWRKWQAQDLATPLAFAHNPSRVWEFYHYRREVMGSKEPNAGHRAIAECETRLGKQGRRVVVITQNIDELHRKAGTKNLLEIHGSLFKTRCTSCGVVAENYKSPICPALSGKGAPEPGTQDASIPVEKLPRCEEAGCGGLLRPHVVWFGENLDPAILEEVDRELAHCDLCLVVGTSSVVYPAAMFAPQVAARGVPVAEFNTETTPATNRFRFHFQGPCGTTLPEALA
# [3] = target: T3, Sirt3 (Homo sapiens, UniProt Q9NTG7); assay: MS deacetylation assay with acetyl-ACS2 peptide; type: biochemical
# T3 construct: residues 118–399
# T3 sequence (Q9NTG7 118-399): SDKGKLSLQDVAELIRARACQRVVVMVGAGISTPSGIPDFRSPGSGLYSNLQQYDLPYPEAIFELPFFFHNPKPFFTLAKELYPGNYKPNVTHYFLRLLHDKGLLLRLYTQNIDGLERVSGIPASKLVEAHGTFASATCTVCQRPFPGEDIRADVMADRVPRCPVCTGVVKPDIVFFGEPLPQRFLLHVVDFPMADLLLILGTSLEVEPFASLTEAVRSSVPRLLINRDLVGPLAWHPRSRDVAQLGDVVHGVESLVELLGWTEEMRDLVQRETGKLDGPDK
# [4] = target: T4, Sirt6 (Homo sapiens, UniProt Q8N6T7); assay: crystal structure at […] Å; MS deacetylation assay (activation at […]); type: binding
# T4 construct: Sirt6(13–308) for crystals; Sirt6(1-355) for activity
# T4 sequence (Q8N6T7 whole entry): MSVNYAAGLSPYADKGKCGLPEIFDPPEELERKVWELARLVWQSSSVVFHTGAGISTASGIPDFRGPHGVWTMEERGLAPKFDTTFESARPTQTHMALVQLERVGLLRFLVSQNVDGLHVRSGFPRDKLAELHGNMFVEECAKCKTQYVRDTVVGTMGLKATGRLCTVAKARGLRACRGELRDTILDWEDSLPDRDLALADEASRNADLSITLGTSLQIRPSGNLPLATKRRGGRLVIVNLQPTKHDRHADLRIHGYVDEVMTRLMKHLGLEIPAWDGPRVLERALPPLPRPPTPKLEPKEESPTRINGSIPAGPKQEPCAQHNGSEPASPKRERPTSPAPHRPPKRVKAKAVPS
# [5] = target: T4, Sirt6; assay: crystal structure ([…] Å in Table […]); MS deacetylation assay (activation); type: binding
smiles,measurement,setting,value
"O=c1c(O)c(-c2ccc(O)c(O)c2)oc2cc(O)cc(O)c12 [compound 1, quercetin]",MS deacetylation assay with acetyl-p53 peptide,[1],Quercetin caused a concentration-dependent inhibition of all Sirtuin isoforms except for Sirt6
same,MS desuccinylation assay with succinyl-CPS1 peptide,[2],Quercetin caused a concentration-dependent inhibition of all Sirtuin isoforms except for Sirt6
same,MS deacetylation assay with acetyl-ACS2 peptide,[3],Quercetin caused a concentration-dependent inhibition of all Sirtuin isoforms except for Sirt6
"Oc1cc(O)c2cc(O)c(-c3ccc(O)c(O)c3)[o+]c2c1 [compound 6, cyanidin]",crystal structure at 2.10 Å; MS deacetylation assay (activation at 20-80 μM),[4],we solved a crystal structure of a Sirt6/ADP-ribose/cyanidin complex
"O=c1c(O[C@@H]2O[C@H](CO)[C@@H](O)[C@H](O)[C@H]2O)c(-c2ccc(O)c(O)c2)oc2cc(O)cc(O)c12 [compound 4, isoquercetin]",crystal structure (1.90 Å in Table 1); MS deacetylation assay (activation),[5],we determined a crystal structure of a Sirt6/ADP-ribose/isoquercetin complex
